Data set [1] deals with T1, CB1 receptor (Homo sapiens, UniProt P21554). In words: CB1 competitive radioligand binding assay ([3H] SR141716A). Also on record: expressed in transfected cells; host or cells: Chem-1 cells. Conditions: for inhibition at 0.5 µM: 0.5 μM compound, 2.0 nM [3H] SR141716A, 90 min 37° C. The method in brief:
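Chem-1 cells expressing human recombinant CB1 incubated 90 min at 37° C with 2.0 nM [3H]SR141716A and compound at 0.5 μM (1% DMSO) in HEPES pH 7.4 buffer with MgCl2, CaCl2, 0.2% BSA. Read-out is % inhibition of radioligand binding.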

Data set [2] relates to 12 systems of human primary cells. Kind of data set: BioMAP Diversity PLUS phenotypic screen. Conditions: 3.3 μM; for Anti-proliferation: cell type in which anti-proliferative effect was seen; for Immune modulation, cell surface and tissue remodeling biomarkers: changes at least 1.5-fold from vehicle control. Type of data set: cell-based. On the procedure: Compounds of the invention were assayed for their effects on 148 biomarkers of inflammation, immune modulation and tissue remodeling in the BioMAP® Diversity PLUS® (DiscoverX) platform designed to model aspects of human diseases in vitro (Kunkel 2004, Berg 2006, Melton 2013).
The example compounds (3.3 μM) in Table 8 induced increases or decreases in the levels of the indicated 20 biomarkers, which are at least 1.5-fold change from vehicle control and are outside the significance prediction envelop. All compounds presented in Table 8 were not cytotoxic at the concentration tested.

In data set [3] the target is T1, CB1 receptor. In words: cAMP Assay #1: CB1 adenylylcyclase assay in CHO cells. The format is cell-based. Set-up: expressed in transfected cells; host or cells: CHO cells. The gist of the method: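 CHO cells expressing human recombinant CB1 incubated with compound 20 min at 37 °C; agonism read as change in cAMP production. EC50 from non-linear Hill-equation fit of mean replicate concentration-response curves.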

The target of a further data set is CB2 receptor (Homo sapiens, UniProt P34972). In words: cAMP Assay #2: Hit Hunter cAMP assay, Gi-coupled agonist activity, CB2. Conditions: for CB2 fold selectivity: CB1 EC50 / CB2 EC50. Set-up: host or cells: cAMP Hunter cell lines. The format is cell-based. For orientation: Changes in cAMP serve as a functional read-out for many G protein-coupled receptors.
Chain of CB2 receptor (P34972 whole entry): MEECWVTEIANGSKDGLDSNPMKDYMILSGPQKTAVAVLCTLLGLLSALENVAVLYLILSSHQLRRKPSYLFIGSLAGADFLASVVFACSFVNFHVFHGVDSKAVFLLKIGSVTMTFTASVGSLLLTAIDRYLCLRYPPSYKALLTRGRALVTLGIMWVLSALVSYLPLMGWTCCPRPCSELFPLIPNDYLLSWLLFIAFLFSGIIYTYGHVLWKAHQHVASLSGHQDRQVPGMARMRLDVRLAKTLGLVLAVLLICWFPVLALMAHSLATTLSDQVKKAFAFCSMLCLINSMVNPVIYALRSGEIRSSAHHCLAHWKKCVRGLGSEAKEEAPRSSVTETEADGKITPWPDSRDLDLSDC
Data set [4] in a line: Pharmacokinetics after PO dose in mice. Type of data set: in vivo, Male C57BL/6 mice. Conditions: 10 mg/kg PO; for AUC(0-inf) / Cmax / MRT inf / Tmax / half-life / AUC(0-t): male, C57BL/6, mouse, in vivo; for AUC(0-t): read-out: AUC0-24 hr.
Data set [5] in a line: Pharmacokinetics after IV dose in mice. Particulars: in vivo, 1 mg/kg IV, male C57BL/6 mice; for AUC(0-t): male, C57BL/6, mouse, iv, 1 mg/kg; for AUC(0-inf) / C0 / MRT inf / clearance / half-life / Vd: mouse; for Vd: read-out: Vss. On the procedure:
Male C57BL/6 mice were administered an intravenous (IV) dose of 1 mg/kg of the indicated compound.

Where [6] appears, read: Table 2, read-out: CB1 Binding Ki.
The mark [7] stands for this setting: CHO cells, 20 min 37° C., relative to 10 nM CP 55940, read-out: CB1 Activity EC50 (cAMP).
[8] abbreviates: Hit Hunter cAMP, 25 μM forskolin, control ligand CP55,940, read-out: CB2, EC50.

Experimental findings from patent US20210284621A1 (priority 2018, published 2021) are described below.

pEC50, pKi: −log10 of the molar value. “Also recorded” adds a separate entry of the source. Where two headings read alike, the source gives them in different places.

T1 sequence (P21554 whole entry): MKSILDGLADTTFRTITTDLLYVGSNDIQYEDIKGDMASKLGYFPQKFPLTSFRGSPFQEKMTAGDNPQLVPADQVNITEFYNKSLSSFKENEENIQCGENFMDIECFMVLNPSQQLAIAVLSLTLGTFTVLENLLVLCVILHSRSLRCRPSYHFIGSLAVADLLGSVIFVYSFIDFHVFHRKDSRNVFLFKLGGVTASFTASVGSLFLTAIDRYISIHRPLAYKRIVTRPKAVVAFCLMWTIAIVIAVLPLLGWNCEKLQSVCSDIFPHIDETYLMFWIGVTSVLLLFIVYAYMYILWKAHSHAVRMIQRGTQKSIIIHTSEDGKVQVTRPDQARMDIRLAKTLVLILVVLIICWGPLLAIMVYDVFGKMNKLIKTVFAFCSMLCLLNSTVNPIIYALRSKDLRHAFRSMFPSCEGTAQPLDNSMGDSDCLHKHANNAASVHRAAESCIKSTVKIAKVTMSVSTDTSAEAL

Take `CCCCCCC(C)(C)c1cc(O)c2c(c1)OC(C)(C)[C@@H]1CC=C(C(=O)NC(CO)CO)C[C@@H]21` [Compound 25, (6aR,10aR)-N-(1,3-Dihydroxypropan-2-yl)-1-hydroxy-6,6-dimethyl-3-(2-methyloctan-2-yl)-6a,7,10,10a-tetrahydro-6H-benzo[c]chromene-9-carboxamide]: on CB1 receptor [1], the inhibition – broadly, the relative decrease from the control value, in per cent – at 0.5 µM stood at 29%. Moreover, the pKi (as a rule, the negative decadic logarithm of the Ki, by convention in mol/L) at CB1 receptor [1] (setting [6]) is 6.50. Moreover, the Anti-proliferation result in data set [2] was “Dermal fibroblasts”. Further, the “Immune modulation, cell surface and tissue remodeling biomarkers” value in data set [2] is “Reduced VCAM-1, PAI-I, IL-10, and M-CSF; increased MMP-1”. Moreover, the pEC50 (as a rule, the negative decadic logarithm of the EC50, by convention in mol/L) was 7.80 at CB1 receptor [3] (setting [7]) and 8.05 on CB2 receptor (setting [8]). For the same compound, the CB2 fold selectivity on CB2 receptor (Hit Hunter cAMP) is listed as 40.0.

Turning to `CCCCCCC(C)(C)c1cc(O)c2c(c1)OC(C)(C)[C@@H]1CC=C(C(=O)OC(C)C)C[C@@H]21` [Compound 29, Isopropyl (6aR,10aR)-1-hydroxy-6,6-dimethyl-3-(2-methyloctan-2-yl)-6a,7,10,10a-tetrahydro-6H-benzo[c]chromene-9-carboxylate], on CB1 receptor [1], the inhibition at 0.5 µM worked out at 65%. In addition, in data set [2], the Anti-proliferation entry is reported as “Dermal fibroblasts”; the “Immune modulation, cell surface and tissue remodeling biomarkers” value was “Reduced Eotaxin-3, IL-8, E-selectin, P-selectin, VCAM, EGFR,; also recorded: IL-1α, IP-10, and PAI-I”. This compound had a pEC50 at CB1 receptor [3] of 8.17. Also, in data set [4], the F stood at 3.98%; the Tlag was determined as 0.00 h; the AUC(0-inf) (in general, the area under the concentration-time curve extrapolated to infinity) came to 1420 ng·h/mL; the Cmax (in general, the maximum level reached in the sampled fluid or tissue) amounted to 203 ng/mL. Further, in data set [4], the MRT inf (as a rule, the average time that molecules of a dose stay in the body) amounted to 6.2 h; the Tmax (as a rule, the time from dosing to the highest level) turned out to be 6 h; the half-life (as a rule, how long it takes for the measured level to halve) is 4.21 h; the AUC(0-t) is 1400 ng·h/mL. Further, in data set [5] (read-out: AUC0-24 hr), the AUC(0-t) amounted to 3550 ng·h/mL. Further, the AUC(0-t) in data set [5] (read-out: AUClast) is 3550 ng·h/mL. For the same compound, in data set [5], the AUC(0-inf) is 3570 ng·h/mL, the C0 turned out to be 17500 ng/mL, the MRT inf came out at 1.53 h and the clearance (commonly the rate of elimination divided by the concentration) was 4.67 mL/min/kg. Besides, in data set [5], the half-life was 4.89 h and the Vd stood at 0.43 L/kg. This compound gave a pEC50 at CB2 receptor of 9.00. On CB2 receptor (Hit Hunter cAMP), the CB2 fold selectivity is on record as 9.6.

On to `CCCCCCC(C)(C)c1cc(O)c2c(c1)OC(C)(C)[C@@H]1CC=C(C(=O)NC[C@H](O)CO)C[C@@H]21` [Compound 56, (6aR,10aR)-N—((S)-2,3-Dihydroxypropyl)-1-hydroxy-6,6-dimethyl-3-(2-methyloctan-2-yl)-6a,7,10,10a-tetrahydro-6H-benzo[c]chromene-9-carboxamide], for which the pKi at CB1 receptor [1] (setting [6]) is 6.15. Moreover, on CB1 receptor [3] (setting [7]), the pEC50 is 8.44. In data set [4], this compound yielded an F of 23.11%, a Tlag of 0 h, an AUC(0-inf) of 4430 ng·h/mL and a maximum concentration (Cmax) of 902 ng/mL. Moreover, in data set [4], the MRT inf amounted to 4.89 h, the Tmax was determined as 1 h, the half-life was 2.63 h and the AUC(0-t) came out at 4420 ng·h/mL. In addition, in data set [5] (read-out: AUC0-24 hr), the AUC(0-t) is 2080 ng·h/mL. The AUC(0-t) in data set [5] (read-out: AUClast) turned out to be 1790 ng·h/mL. Besides, in data set [5], the AUC(0-inf) was 1920 ng·h/mL, the C0 was 2790 ng/mL, the MRT inf is 2.3 h and the clearance was 8.7 mL/min/kg. In data set [5], the half-life is 2.39 h and the Vd came out at 1.2 L/kg. In addition, on CB2 receptor (setting [8]), the pEC50 is 8.08. This compound also returned a CB2 fold selectivity at CB2 receptor (Hit Hunter cAMP) of 30.0.

As for `CCCCCCC(C)(C)c1cc(O)c2c(c1)OC(C)(C)[C@@H]1CC=C(C(=O)NC(C)(C)CCO)C[C@@H]21` [Compound 15, (6aR,10aR)-1-Hydroxy-N-(4-hydroxy-2-methylbutan-2-yl)-6,6-dimethyl-3-(2-methyloctan-2-yl)-6a,7,10,10a-tetrahydro-6H-benzo[c]chromene-9-carboxamide], the inhibition at 0.5 µM on CB1 receptor [1] is 16%. Besides, at CB1 receptor [1] (setting [6]), the pKi is 6.18. Moreover, the pEC50 at CB1 receptor [3] (setting [7]) is 7.17. In data set [4], this compound had an F of 37.4%, a Tlag of 0.00 h, an AUC(0-inf) of 5890 ng·h/mL and a Cmax of 779 ng/mL. In data set [4], the MRT inf was determined as 5.07 h, the Tmax turned out to be 4 h, the half-life is 2.65 h and the AUC(0-t) stood at 5870 ng·h/mL. Also, in data set [5] (read-out: AUC0-24 hr), the AUC(0-t) was 1720 ng·h/mL. In data set [5] (read-out: AUClast), the AUC(0-t) is 1510 ng·h/mL. In data set [5], this compound showed an AUC(0-inf) of 1570 ng·h/mL, a C0 of 1840 ng/mL, an MRT inf of 2.16 h and a clearance of 10.6 mL/min/kg. In addition, in data set [5], the half-life was 1.74 h and the Vd stood at 1.37 L/kg. Further, the pEC50 at CB2 receptor (setting [8]) is 8.57. The same compound registered a CB2 fold selectivity at CB2 receptor (Hit Hunter cAMP) of 164.1.

`CCCCCCC(C)(C)c1cc(O)c2c(c1)OC(C)(C)[C@@H]1CC=C(C(=O)NC[C@@H](O)CO)C[C@@H]21` [Compound 55, (6aR,10aR)-N—((R)-2,3-Dihydroxypropyl)-1-hydroxy-6,6-dimethyl-3-(2-methyloctan-2-yl)-6a,7,10,10a-tetrahydro-6H-benzo[c]chromene-9-carboxamide]: on CB1 receptor [1] (setting [6]), the pKi was 6.21. For the same compound, in data set [2], the Anti-proliferation result is “Dermal fibroblasts”. For the same compound, the pEC50 at CB1 receptor [3] (setting [7]) is 7.35. In data set [4], this compound yielded an F of 30.33%, a Tlag of 0 h, an AUC(0-inf) of 7200 ng·h/mL and a Cmax of 882 ng/mL. In addition, in data set [4], the MRT inf was found to be 6.4 h, the Tmax was 1 h, the half-life is 2.72 h and the AUC(0-t) stood at 7170 ng·h/mL. In data set [5] (read-out: AUC0-24 hr), the AUC(0-t) worked out at 2360 ng·h/mL. The AUC(0-t) in data set [5] (read-out: AUClast) was found to be 2360 ng·h/mL. In data set [5], this compound had an AUC(0-inf) of 2380 ng·h/mL, a C0 of 3060 ng/mL, an MRT inf of 3.38 h and a clearance of 7.02 mL/min/kg. Also, in data set [5], the half-life was 3.99 h and the Vd was found to be 1.42 L/kg. Besides, the pEC50 on CB2 receptor (setting [8]) is 8.24. On CB2 receptor (Hit Hunter cAMP), this compound yielded a CB2 fold selectivity of 30.5.

As to `CCCCCCC(C)(C)c1cc(O)c2c(c1)OC(C)(C)[C@@H]1CC=C(C(=O)O)C[C@@H]21` [AJA, (6aR,10aR)-1-hydroxy-6,6-dimethyl-3-(2-methyl-2-octanyl)-6a,7,10,10a-tetrahydro-6H-benzo[c]chromene-9-carboxylic acid, reference compound], on CB1 receptor [1], the pKi was under 5.52 and the inhibition at 0.5 µM was -1%. On CB1 receptor [3], the pEC50 was 8.34. In addition, in data set [4], the F was found to be 70.79%, the Tlag was determined as 0 h, the AUC(0-inf) came to 17800 ng·h/mL and the Cmax came to 3860 ng/mL. In data set [4], the MRT inf came out at 3.42 h, the Tmax came to 1 h, the half-life was 2.19 h and the AUC(0-t) is 17800 ng·h/mL. In addition, in data set [5] (read-out: AUC0-24 hr), the AUC(0-t) amounted to 2770 ng·h/mL. For the same compound, the AUC(0-t) in data set [5] (read-out: AUClast) turned out to be 2420 ng·h/mL. In data set [5], this compound showed an AUC(0-inf) of 2510 ng·h/mL, a C0 of 1750 ng/mL, an MRT inf of 1.89 h and a clearance of 6.67 mL/min/kg. Moreover, in data set [5], the half-life was 1.41 h and the Vd stood at 0.75 L/kg. The pEC50 on CB2 receptor is 8.15. The compound further returned a CB2 fold selectivity at CB2 receptor (Hit Hunter cAMP) of 11.0.
